Experimental data published in patent US20210228530A1, “TAXANE-LIPID-POLYSACCHARIDE DUAL CONJUGATES, PREPARATION METHODS THEREOF AND USES THEREOF” (Santolecan Pharmaceuticals LLC, priority 2018, published 2021).
Values after ≈ are worked out from the molar mass of the structure shown.

What was measured:
[1] = tested on: NCI-H460 tumor cells; assay: In vitro antitumor activity, MTT assay, NCI-H460; type: cell-based; conditions: Homo sapiens, 72 h treatment, conjugates in taxane molar equivalents
Procedure: (§1) In order to determine if the activity of the prepared intermediates and prepared conjugates, we evaluated their antitumor activities by using MTT assay.
(§2) All cell lines were maintained in a humidified atmosphere containing 5% CO2 at 37° C. in different media supplemented with 10% FBS, 100 U/ml penicillin, and 100 μg/ml streptomycin. MCF-7, NCI-H460 or OVCAR-3 tumor cells were seeded into a 96-well cell culture plate and incubated overnight. The 96-well culture plate was taken out from the incubator, and the conjugates or mixture of different compounds or polysaccharides were added into it. […] Three wells were set at each concentration. Blank control contained tumor cells in normal medium without any sample. After treatment for 72 h, 20 μL of 3-(4, 5-dimethylthiazole-2)-2,5-diphenyltetrazolium bromide (MTT) were added to each well and incubated for 4 hours at 37° C. […] The half-inhibitory concentration (IC50 value) of each compound or conjugate was calculated.

[2] = tested on: MCF-7 tumor cells; assay: In vitro antitumor activity, MTT assay, MCF-7; type: cell-based; conditions: Homo sapiens, MCF7, 72 h treatment, conjugates in taxane molar equivalents
Procedure: as §1, §2

[3] = Enhanced solubility test for poorly water-soluble compounds; type: physicochemical; conditions: 1.0 mg alone in 2.0 ml distilled water, sonicated for 1 minute
[4] = tested on: OVCAR-3 (drug resistance) tumor cells; assay: In vitro antitumor activity, MTT assay, OVCAR-3; type: cell-based; conditions: Homo sapiens, 72 h, taxane molar equivalents, molar ratio of taxane to lipid (Paclitaxel:DHA) 1:0, 1:1, 1:2, 1:4 per row
Procedure: as §1
All cell lines were maintained in a humidified atmosphere containing 5% CO2 at 37° C. in different media supplemented with 10% FBS, 100 U/ml penicillin, and 100 μg/ml streptomycin. MCF-7, NCI-H460 or OVCAR-3 tumor cells were seeded into a 96-well cell culture plate and incubated overnight. The 96-well culture plate was taken out from the incubator, and the conjugates or mixture of different compounds or polysaccharides were added into it. The concentration of each compound or conjugate were set to 500 nM, 200 nM, 100 nM, 50 nM, 25 nM, 12.5 nM, 6 nM, 3 nM and 1 nM. Three wells were set at each concentration. Blank control contained tumor cells in normal medium without any sample. After treatment for 72 h, 20 μL of 3-(4, 5-dimethylthiazole-2)-2,5-diphenyltetrazolium bromide (MTT) were added to each well and incubated for 4 hours at 37° C. After the removal of the supernatant, MTT formazan was dissolved in 150 μl dimethyl sulfoxide (DMSO) and monitored using a microplate reader at a wavelength of 570 nm. The half-inhibitory concentration (IC50 value) of each compound or conjugate was calculated.

[5] = tested on: metastatic malignant melanoma cancer; conditions: patients with metastatic malignant melanoma cancer; Ann. Oncol., 2011; cited from earlier work
[6] = In vivo safety assay in xenograft nude mice: body weight and death; design: species or system BALB/c (nu/nu) mice; conditions: whole experiment period; 8.0 mg/kg docetaxel or equimolar dose, i.v. once a week, 4 weeks
Procedure: BALB/c (nu/nu) mice (20±2 g, 4-6 weeks old) were housed under pathogen-free conditions. Cancer cells such MCF-7 and NCI-H460 5.0×10^6, suspended in 100 μl PBS, were subcutaneously inoculated into the lower right rank of the nude mice. When the tumor size reached 100-150 mm^3, the mice were divided randomly into different groups (n=6 in each group). The control group received the solvent only. […] The mice were treated for 4 weeks. After the administration, the mice are raised normally. The tumor volume and mouse body weight were measured on every 3 days.

[7] = literature report, drugbank.ca; cited from earlier work

IC50 [1] [nM]	IC50 [2] [nM]	IC50 [4] [nM]	Structure (SMILES)	observation of the compound alone in water [3]	final survival rates versus dacarbazine group [5]	death of nude mice [6]	solubility in water (literature) [7] [µg/mL]
7.1 ± 0.3	8.3 ± 0.5	–	CO[C@H]1C(=O)[C@]2(C)[C@@H](OC)C[C@H]3OC[C@@]3(OC(C)=O)[C@H]2[C@H](OC(=O)c2ccccc2)[C@]2(O)C[C@H](OC(=O)[C@H](O)[C@@H](NC(=O)OC(C)(C)C)c3ccccc3)C(C)=C1C2(C)C [Cabazitaxel, cabazitaxel]	–	–	–	–
17.9 ± 1.3	21.9 ± 1.1	57.6 ± 6.3	CC(=O)O[C@H]1C(=O)[C@@]2(C)[C@H]([C@H](OC(=O)c3ccccc3)[C@]3(O)C[C@H](OC(=O)[C@H](O)[C@@H](NC(=O)c4ccccc4)c4ccccc4)C(C)=C1C3(C)C)[C@]1(OC(C)=O)CO[C@@H]1C[C@@H]2O [Paclitaxel, paclitaxel]	undissolved powder floated over water surface was clearly observed	–	–	–
–	–	–	CC/C=C\C/C=C\C/C=C\C/C=C\C/C=C\C/C=C/CCC(=O)O[C@@H](C(=O)O[C@H]1C[C@@]2(O)[C@@H](OC(=O)c3ccccc3)C3[C@](C)(C(=O)[C@H](OC(C)=O)C(=C1C)C2(C)C)[C@@H](O)C[C@H]1OC[C@@]31OC(C)=O)[C@@H](NC(=O)c1ccccc1)c1ccccc1 (stereo partly drawn) [DHA-paclitaxel]	–	no significant differences in final survival rates	–	–

Structure (SMILES)	IC50 [1] [nM]	IC50 [2] [nM]	IC50 [4] [nM]	observation of the compound alone in water [3]	final survival rates versus dacarbazine group [5]	death of nude mice [6]	solubility in water (literature) [7] [µg/mL]
CC(=O)O[C@@]12CO[C@@H]1C[C@H](O)[C@@]1(C)C(=O)[C@H](O)C3=C(C)[C@@H](OC(=O)[C@H](O)[C@@H](NC(=O)OC(C)(C)C)c4ccccc4)C[C@@](O)([C@@H](OC(=O)c4ccccc4)[C@H]21)C3(C)C [Docetaxel, docetaxel]	6.7 ± 0.6	9.5 ± 0.2	–	undissolved powder floated over water surface was clearly observed	–	no death	1.27 (≈ 1.57 µM)
